Source: paper PMC10535219, “Discovery and Potential Utility of a Novel Non-Invasive Ocular Delivery Platform” (Pharmaceutics, 2023)
Like-named read-outs stand apart in the source and are kept apart here.

Legend:
[1] = Biodisposition of JV-DE1 and JV-MD2 delivered via NIODP (periorbital skin) in non-human primates; type: in vivo, cynomolgus monkeys; conditions: for Cmax / concentration at 24 h / concentration at 3 h / concentration at 6 h / concentration at 0.5 h: cynomolgus, cynomolgus monkey
Method: All experiments were performed at Medicilon. […] A pen brush was used to dose each formulation with three to four circular motions for even distribution. The doses of the test articles were selected based on their solubility/concentration with the maximum deliverable volume on the periorbital skin of the animals. The administered dose was calculated by the weight difference of the pen brush before and after administration. Animals were restrained from eye rubbing in restraint chairs for 2 h after dosing, with access to food and drink. A blood sample was collected from one of the study animals at pre-dosing. For every time point of 0.5, 3, 6, and 24 h post-dose, one animal was euthanized and the ocular tissues (upper eyelid, cornea, retina, and vitreous humor) of both eyes were collected. Plasma samples were collected before each euthanization.
For the convenience of tissue processing and sample extraction, only upper eyelids were collected to represent the entirety of the periorbital tissue. Ocular tissues were homogenized by adding a 9-fold volume of 50% methanol/H2O per gram of tissue. For the LC-MS/MS sample preparation, a 50 μL aliquot of plasma, aqueous humor, vitreous humor, or tissue homogenate was thoroughly mixed with a 250 μL extraction solution of CHCl3/EtOH (1:1); then, a 210 μL supernatant of the samples was transferred to a 96-well plate after centrifugation. The samples were evaporated in nitrogen gas (N2) until dried. Each sample was redissolved in 200 μL MeOH, of which 2 µL was injected for the LC-MS/MS analysis.
The LC system was the same as that described in Section 2. The MS analysis was performed using a Triple Quad 5500 with an ESI ion source, and the data acquisition and control system were Analyst 1.6.3 software from Applied Biosystems/MDS Sciex.
The LC/MS conditions for JV-DE1 are described in Supplementary Table S2. The LC conditions were as follows: ACQUITY UPLC ® BEH C18 1.7 μm, 2.1 mm × 50 mm; the mobile phase Column A, 0.1% formic acid in water; and Column B, 0.1% formic acid in acetonitrile. The flow rate was 0.6 ml/min, the column temperature was 50 °C, and the injection volume was 2 µL. The MS conditions were as follows: scan type, positive MRM; ion source, turbo spray; ionization model, ESI; nebulizer gas 1, 55 psi; gas 2, 55 psi; curtain gas, 40 psi; CAD, 10; ionspray voltage, 5500 V; and temperature, 550 °C.
The LC/MS conditions for JV-MD2 (DHA) are described in Supplementary Table S3. The LC conditions were as follows: ACQUITY UPLC® BEH C18 1.7 μm, 2.1 mm × 50 mm; the mobile phase Column A, […] NH4AC in H2O; and Column B, CAN. The flow rate was 0.5 mL/min, the column temperature was 40 °C, and the injection volume was 4 µL. The MS conditions were as follows: scan type, negative MRM; ion source, turbo spray; ionization model, ESI; nebulizer gas 1, 55 psi; gas 2, 55 psi; curtain gas, 40 psi; CAD, 9; ionspray voltage, 5500 V; and temperature, 550 °C.

human PAF receptor = molecular target: human PAF receptor; set-up: method as in PMID 16331286; conditions: cited from earlier work
[2] = JV-DE1, monkey, NIODP OD, 159.3 μg/eye, 24 h
[3] = JV-DE1, monkey, NIODP OD, 160.6 μg/eye, 3 h
[4] = JV-DE1, monkey, NIODP OD, 162.2 μg/eye, 6 h
[5] = JV-DE1, monkey, NIODP OD, 179.1 μg/eye, 0.5 h

Structure (SMILES): CC(C)Oc1ccc(Cc2ccc(NC3=NCCN3)cc2)cc1 [JV-DE1, 4,5-dihydro-N-[4-[[4-(1-methylethoxy)phenyl]methyl]phenyl]-1H-imadazol-2-amine]
- Drug in plasma ([1]; JV-DE1 0.53% w/w, monkey, NIODP periorbital skin OD, 159.3 μg/eye, 24 h, LLOQ 0.0001 µg/mL): BLQ
- % Administered Dose, Cornea [1, 2]: 0.0326%
- % Administered Dose, Eyelid/periorbital skin [1, 2]: 0.7501%
- % Administered Dose, Retina [1, 2]: 0.0002%
- % Administered Dose, Vitreous humor [1, 2]: 0.0018%
- % Administered Dose, Cornea [1, 3]: 0.3430%
- % Administered Dose, Eyelid/periorbital skin [1, 3]: 1.4956%
- % Administered Dose, Retina [1, 3]: 0.0004%
- % Administered Dose, Vitreous humor [1, 3]: 0.0029%
- % Administered Dose, Cornea [1, 4]: 0.5900%
- % Administered Dose, Eyelid/periorbital skin [1, 4]: 0.3477%
- % Administered Dose, Retina [1, 4]: 0.0005%
- % Administered Dose, Vitreous humor [1, 4]: 0.0031%
- % Administered Dose, Cornea [1, 5]: 0.1921%
- % Administered Dose, Eyelid/periorbital skin [1, 5]: 0.6370%
- % Administered Dose, Retina [1, 5]: 0.0004%
- % Administered Dose, Vitreous humor [1, 5]: 0.0047%
- plasma concentrations ([1]; JV-DE1, monkey, NIODP about 165.3 µg/eye OD, all time points, LLOQ 0.0001 µg/mL): ≤ 300 pg/mL
- maximum delivery efficiency in the retina ([1]; JV-DE1, monkey, via NIODP): 0.0005%
- decrease of maximum retinal delivery efficiency, NIODP vs eye drop ([1]; JV-DE1, monkeys (NIODP) vs rabbits (eye drop), not head-to-head): about 10 fold
- Cmax ([1]; cornea, topical or ocular, 165.3 ug, JV-DE1, monkey, NIODP about 165.3 µg/eye OD, read-out: Cmax in cornea): 9300 ng/g
- concentration at 24 h ([1]; cornea, topical, JV-DE1, monkey, NIODP OD, 159.3 μg/eye, 24 h, read-out: Drug in OD Tissues, Cornea): 1620 ng/g
- concentration at 3 h ([1]; cornea, topical, JV-DE1, monkey, NIODP OD, 160.6 μg/eye, 3 h, read-out: Drug in OD Tissues, Cornea): 16700 ng/g
- concentration at 6 h ([1]; cornea, topical, JV-DE1, monkey, NIODP OD, 162.2 μg/eye, 6 h, read-out: Drug in OD Tissues, Cornea): 23900 ng/g
- concentration at 0.5 h ([1]; cornea, topical, JV-DE1, monkey, NIODP OD, 179.1 μg/eye, 0.5 h, read-out: Drug in OD Tissues, Cornea): 9300 ng/g
- concentration at 24 h ([1]; eyelid/periorbital skin (upper eyelid), topical, JV-DE1, monkey, NIODP OD, 159.3 μg/eye, 24 h, read-out: Drug in OD Tissues, Eyelid/periorbital skin): 11600 ng/g
- concentration at 3 h ([1]; eyelid/periorbital skin (upper eyelid), topical, JV-DE1, monkey, NIODP OD, 160.6 μg/eye, 3 h, read-out: Drug in OD Tissues, Eyelid/periorbital skin): 32500 ng/g
- concentration at 6 h ([1]; eyelid/periorbital skin (upper eyelid), topical, JV-DE1, monkey, NIODP OD, 162.2 μg/eye, 6 h, read-out: Drug in OD Tissues, Eyelid/periorbital skin): 7950 ng/g
- concentration at 0.5 h ([1]; eyelid/periorbital skin (upper eyelid), topical, JV-DE1, monkey, NIODP OD, 179.1 μg/eye, 0.5 h, read-out: Drug in OD Tissues, Eyelid/periorbital skin): 26500 ng/g
- Cmax ([1]; eyelid/periorbital skin, topical or ocular, 165.3 ug, JV-DE1, monkey, NIODP about 165.3 µg/eye OD, read-out: Cmax in eyelid/periorbital skin): 26500 ng/g
- concentration at 3 h ([1]; plasma, topical, JV-DE1 0.53% w/w, monkey, NIODP periorbital skin OD, 160.6 μg/eye, 3 h, read-out: Drug in plasma): 0.2 ng/mL
- concentration at 6 h ([1]; plasma, topical, JV-DE1 0.53% w/w, monkey, NIODP periorbital skin OD, 162.2 μg/eye, 6 h, read-out: Drug in plasma): 0.3 ng/mL
- concentration at 0.5 h ([1]; plasma, topical, JV-DE1 0.53% w/w, monkey, NIODP periorbital skin OD, 179.1 μg/eye, 0.5 h, read-out: Drug in plasma): 0.1 ng/mL
- Cmax ([1]; retina, topical or ocular, 165.3 ug, JV-DE1, monkey, NIODP about 165.3 µg/eye OD, read-out: Cmax in retina): 45.5 ng/g
- Cmax ([1]; retina, topical, 165.3 µg per eye, JV-DE1, monkey, NIODP, read-out: retinal Cmax): 147 nM
- concentration at 24 h ([1]; retina, topical, JV-DE1, monkey, NIODP OD, 159.3 μg/eye, 24 h, read-out: Drug in OD Tissues, Retina): 5.5 ng/g
- concentration at 3 h ([1]; retina, topical, JV-DE1, monkey, NIODP OD, 160.6 μg/eye, 3 h, read-out: Drug in OD Tissues, Retina): 27.9 ng/g
- concentration at 6 h ([1]; retina, topical, JV-DE1, monkey, NIODP OD, 162.2 μg/eye, 6 h, read-out: Drug in OD Tissues, Retina): 45.5 ng/g
- concentration at 0.5 h ([1]; retina, topical, JV-DE1, monkey, NIODP OD, 179.1 μg/eye, 0.5 h, read-out: Drug in OD Tissues, Retina): 39.6 ng/g
- Cmax ([1]; vitreous humor, topical or ocular, 165.3 ug, JV-DE1, monkey, NIODP about 165.3 µg/eye OD, read-out: Cmax in vitreous humor): 19 ng/mL
- concentration at 24 h ([1]; vitreous humor, topical, JV-DE1, monkey, NIODP OD, 159.3 μg/eye, 24 h, read-out: Drug in OD Tissues, Vitreous humor): 19 ng/mL
- concentration at 3 h ([1]; vitreous humor, topical, JV-DE1, monkey, NIODP OD, 160.6 μg/eye, 3 h, read-out: Drug in OD Tissues, Vitreous humor): 7.9 ng/mL
- concentration at 6 h ([1]; vitreous humor, topical, JV-DE1, monkey, NIODP OD, 162.2 μg/eye, 6 h, read-out: Drug in OD Tissues, Vitreous humor): 3.9 ng/mL
- concentration at 0.5 h ([1]; vitreous humor, topical, JV-DE1, monkey, NIODP OD, 179.1 μg/eye, 0.5 h, read-out: Drug in OD Tissues, Vitreous humor): 15.2 ng/mL
- pKi (human PAF receptor): 7.9
